“Also recorded” adds a separate entry of the source. Like-named read-outs stand apart in the source and are kept apart here.
Legend:
[1] = molecular target: T1, AF568-actin:C0-C2 (actin-cMyBP-C binding) (Homo sapiens, UniProt Q14896); assay: TR-F high-throughput screen of LOPAC library, AF568-actin with C0-C2; conditions: for Actin-MyBP-C Drug Δτ, Screen 1 / Actin-MyBP-C Drug Δτ, Screen 2 / Actin-MyBP-C Drug Δτ, Sub-optimal Screen 3 / Actin-MyBP-C Drug Δτ, Sub-optimal Screen 4 / average change in lifetime, SD above the median of all compounds not excluded: 10 μM compound, 1 μM AF568-actin, 2 μM C0-C2; for average change in lifetime, SD above the median of all compounds not excluded: average of screens; for Difference, Screen 1 / Difference, Screen 2 / Difference, Sub-optimal Screen 3 / Difference, Sub-optimal Screen 4: Δτ actin+C0-C2 after subtracting effect on actin alone
T1 sequence (Q14896 1-451 limits assumed): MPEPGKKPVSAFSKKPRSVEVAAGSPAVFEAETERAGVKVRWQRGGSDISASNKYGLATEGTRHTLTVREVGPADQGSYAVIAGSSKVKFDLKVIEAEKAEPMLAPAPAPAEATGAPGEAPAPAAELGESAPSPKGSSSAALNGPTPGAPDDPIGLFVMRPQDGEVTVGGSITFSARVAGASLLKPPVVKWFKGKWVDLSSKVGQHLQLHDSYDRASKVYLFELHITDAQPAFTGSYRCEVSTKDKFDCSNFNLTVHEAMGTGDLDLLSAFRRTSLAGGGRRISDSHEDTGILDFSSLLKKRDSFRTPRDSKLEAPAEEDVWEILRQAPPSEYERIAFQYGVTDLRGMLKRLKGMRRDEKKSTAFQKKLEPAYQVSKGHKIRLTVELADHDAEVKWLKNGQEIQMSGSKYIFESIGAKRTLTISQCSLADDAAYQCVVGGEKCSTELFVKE
Procedure: (§1) The 1280 LOPAC compounds were received in 96-well plates (LOPAC^1280, Sigma-Aldrich) and were reformatted into 1536-well flat, black-bottom polypropylene plates (Greiner Bio-One). In total, 50 nl of compounds was dispensed using an automated Echo 550 acoustic liquid dispenser (Labcyte). LOPAC compounds were formatted into plates, with the first two and last two columns loaded with 50 nl of DMSO and used for compound-free controls. The final concentration of the compounds was 10 μM. These assay plates were then heat-sealed using a PlateLoc Thermal Microplate Sealer (Agilent Technologies) and stored at –20 °C. Before screening, compound plates were equilibrated to room temperature (25 °C). In total, 1 μM AF568-labeled actin without or with 2 μM C0-C2 in M-ABB was dispensed by a Multidrop Combi Reagent Dispenser (Thermo Fisher Scientific) into the 1536-well assay plates containing the compounds. Plates were incubated at room temperature for 20 min before recording the data with the FLTPR. Plates were rescanned after 120 min incubation.
(§2) Two full screens were done using different batches of AF568-labeled actin, C0-C2, and test compounds.
(§3) Following data acquisition, TR-F waveforms observed for each well were convolved with the IRF to determine the lifetime (τ) (Equation 1) by fitting to a single-exponential decay ([15], [35]).
(§4) A compound was considered a Hit if it was in the top 25 compounds in each of two independent screenings of the LOPAC. Top compounds were those that increased the lifetime of AF568-actin when C0-C2 was present (indicating inhibition of C0-C2 binding). Compounds that altered AF568-actin lifetime when C0-C2 was not present by >4 SD relative to that of the control samples (those exposed to 0.1% DMSO) were first removed from the analysis. […] Any change in lifetime induced by a compound on AF568-actin alone was then subtracted from the effect of the compound on AF568-actin when C0-C2 was present. The resulting C0-C2-dependent change for all compounds was ranked.

AF568-actin = molecular target: T2, AF568-actin (Oryctolagus cuniculus, UniProt P68135); assay: TR-F high-throughput screen, AF568-actin alone (no C0-C2); type: binding, rabbit; conditions: 10 μM compound; 1 μM AF568-actin alone
T2 construct: Actin was prepared from rabbit skeletal muscle by extracting acetone powder; from tissue; host or cells: rabbit skeletal muscle (acetone powder)
Procedure: as §1, §2, §3, §4

[2] = molecular target: T1, AF568-actin:C0-C2 (actin-cMyBP-C binding); assay: TR-F concentration-response assay, AF568-actin with C0-C2; conditions: 2 μM C0-C2; for EC50: 1 μM AF568-actin, mean ± SE; for TR-F n: n not defined in table
Procedure: (§5) Using the same conditions as in the primary screen, we determined the concentration dependence of each of the three Hit compounds on the AF568-actin lifetime effects. […] In a separate dose–response assay utilizing 3 μM C0-C2, we compared the effects of the compounds on nonphosphorylated and phosphorylated C0-C2. […] In the second dose-response assay, 3 μM instead of 2 μM C0-C2 was used in the second dose–response assay so that effects of compounds on phosphorylated C0-C2 could be readily detected, as phosphorylation of C0-C2 itself (in the absence of compounds) reduces binding to actin.
The Hit compounds were dissolved in DMSO to make a 10 mM stock solution, which was serially diluted in 96-well mother plates. Hits were screened at eight concentrations (0.5–100 μM). Compounds (1 μl) were transferred from the mother plates into 384-well plates using a Mosquito HV liquid handler (TTP Labtech Ltd). The same procedure of dispensing as for the pilot screening was applied in the TR-F concentration–response assays. Concentration dependence of the TR-F change was fitted using the Hill equation ([38]):(3) τ=τo+τmaxC^α/EC50α+C^α where τ and τ0 are TR-F in the presence and in the absence of the compound, τmax is the maximum effect, C is the compound concentration, EC50 is the compound concentration for which 50% of maximum effect is obtained, and α is the Hill coefficient of sigmoidicity.

[3] = molecular target: C0-C2 portion of human cMyBP-C (Homo sapiens, UniProt Q14896); assay: Isothermal titration calorimetry (ITC) of compounds binding to C0-C2; conditions: for ITC ΔS / ITC ΔH / ITC ΔG: Table 1 average; for ITC ΔS: no unit in table (Fig. 4: J/mol•K); for ITC ΔH: no unit in table (Fig. 4: kJ/mol); for ITC ΔG: unit not given; for ITC n (stoichiometry, compound per C0-C2): average of two preparations
Sequence of C0-C2 portion of human cMyBP-C (Q14896 1-451 limits assumed): as above

F-actin = molecular target: T3, F-actin (Oryctolagus cuniculus, UniProt P68135); assay: ITC of compounds with actin alone; type: binding, rabbit; conditions: for ITC interaction with F-actin (in words): actin alone
T3 construct: Actin was prepared from rabbit skeletal muscle by extracting acetone powder; from tissue; host or cells: rabbit skeletal muscle (acetone powder)
Procedure: The titration of compounds binding to cMyBP-C was performed on an Affinity ITC (TA Instruments). Each compound in M-ABB buffer (2000–3000 μM) was titrated into C0-C2 in M-ABB buffer (100 μM, 350 μl). For the titration, a preliminary 2.5-μl injection (ignored in data analysis) was followed by 19–39 subsequent 2.5-μl injections with 4 min waits between each injection. The reference cell was filled with distilled water. To account for heat changes of dilution and mechanical mixing, binding data were corrected by subtraction of the final plateau injection values (when binding is complete) prior to curve fitting. Corrected binding data was processed using the NanoAnalyze analysis software (TA Instruments).
Figure S2. ITC of Suramin binding to actin alone. (A) Titration of 100 µM F-actin (in 350 µl) with 40 2.5
µl injections of 3,000 µM Suramin. (B) Fitted ITC binding curve for Suramin binding. Binding to actin was
for Suramin with actin alone (Kd ~200 µM).
(1 picture or pasted object on this page, not shown here)

[4] = molecular target: T4, FMAL-actin:TMR-C0-C2^Cys225 (Homo sapiens, UniProt Q14896, C239L/C249S/C426T/C436V/C443S/H225C); assay: FMAL-actin-TMR-C0-C2 TR-FRET binding assay; conditions: 1 μM FMAL-actin, 2 μM TMR-C0-C2, both nonphosphorylated and phosphorylated C0-C2
T4 construct: N-terminal domains C0 through C2 (C0-C2), containing the proline/alanine-rich linker (P/A) and the M-domain (M); 6x His (N, cleaved yes); TEV protease cleavage site (N, cleaved yes); made in house; host or cells: E. coli BL21DE3 (C0-C2^Cys225); actin purified from rabbit skeletal muscle
T4 sequence (Q14896 1-451 H225C/C239L/C249S/C426T/C436V/C443S limits assumed): as the sequence (Q14896 1-451 limits assumed) above, with H225C, C239L, C249S, C426T, C436V, C443S counted along it
Procedure: In total, 1 μM F-Actin labeled (to 10%) on Cys-374 with FMAL (donor fluor) was incubated with increasing concentrations (0–20 μM) of C0-C2^Cys225 unlabeled (for donor only (D) data acquisition) or labeled to 95% with TMR (acceptor fluor) (for donor–acceptor (DA) data). Lifetimes of FMAL-actin were determined for D and DA at each concentration of C0-C2^Cys225. TR-FRET efficiency (1 – (τDA/τD)) was determined for each C0-C2^Cys225 concentration. The binding curve was generated from data from two separate preparations of actin and C0-C2^Cys225. Testing of compound effects by TR-FRET was similarly done at 1 μM FMAL-actin with unlabeled C0-C2^Cys225 (D) and TMR-C0-C2^Cys225 (DA), both at 2 μM.

C0-C2 = molecular target: T5, C0-C2 (Homo sapiens, UniProt Q14896); assay: Visible light scattering (C0-C2 aggregation); conditions: 2 or 10 μM C0-C2 mixed with compound for 20 min
T5 construct: N-terminal domains C0 through C2 (C0-C2), containing the proline/alanine-rich linker (P/A) and the M-domain (M); 6x His (N, cleaved yes); TEV protease cleavage site (N, cleaved yes); made in house; host or cells: E. coli BL21DE3
T5 sequence (Q14896 1-451 limits assumed): as the sequence (Q14896 1-451 limits assumed) above
Procedure: All three drugs were tested for causing C0-C2 to aggregate by measuring absorbance in the visible range beyond the absorption of protein or the drugs themselves. Observed absorbance in these wavelengths is actually loss of transmitted light due to light scattering from aggregated C0-C2. 2 or 10 μM of C0-C2 was mixed with 20 μM of suramin, NF023, or ATA for 20 min and wavelengths 250–600 nm were scanned using a Beckman Coulter DU730 UV/Vis Spectrophotometer to determine optical density. The same was done with 2 or 10 μM of C0-C2 and 20 μM of suramin, NF023, or ATA alone.

[5] = molecular target: AF568-actin:phosphorylated (by PKA) C0-C2 (Homo sapiens, UniProt Q14896); assay: TR-F concentration-response assay, AF568-actin with PKA-phosphorylated C0-C2; conditions: for TR-F+PKA n: 3 μM phosphorylated C0-C2, n not defined in table
Sequence of AF568-actin:phosphorylated (by PKA) C0-C2 (Q14896 1-451 limits assumed): as above
Procedure: as §5
C0-C2 was treated with 7.5 ng PKA/μg C0-C2 at 30 °C for 30 min.
The Hit compounds were dissolved in DMSO to make a 10 mM stock solution, which was serially diluted in 96-well mother plates. Hits were screened at eight concentrations (0.5–100 μM). Compounds (1 μl) were transferred from the mother plates into 384-well plates using a Mosquito HV liquid handler (TTP Labtech Ltd). The same procedure of dispensing as for the pilot screening was applied in the TR-F concentration–response assays.

[6] = molecular target: FMAL-actin (F-actin from rabbit skeletal muscle labeled at Cys-374 with fluorescein-5-maleimide) (rabbit) (UniProt P68135); assay: FRET or BRET; TR-FRET; 1 μM F-actin labeled (to 10%) with FMAL (donor) with 0-20 μM TMR-C0-C2^Cys225 (acceptor) ±PKA; M-ABB
[7] = molecular target: FMAL-actin (F-actin from rabbit skeletal muscle labeled at Cys-374 with fluorescein-5-maleimide) (rabbit) (UniProt P68135); assay: as above; remark: listed apart in the source
[8] = compound binding to C0-C2, mean ± SE, two protein preparations, read-out: ITC Kd
[9] = single titration shown in Fig. 4
[10] = single titration shown in Fig. 4, 100 μM C0-C2, read-out: ITC Kd (fitted curve of Figure 4)

Compound | Actin-MyBP-C Drug Δτ, Screen 1 [1] [ns] | Actin-MyBP-C Drug Δτ, Screen 2 [1] [ns] | Actin-MyBP-C Drug Δτ, Sub-optimal Screen 3 [1] [ns] | Actin-MyBP-C Drug Δτ, Sub-optimal Screen 4 [1] [ns] | average change in lifetime, SD above the median of all compounds not excluded [1] [SD] | Difference, Screen 1 [1] [ns] | Difference, Screen 2 [1] [ns] | Difference, Sub-optimal Screen 3 [1] [ns] | Difference, Sub-optimal Screen 4 [1] [ns] | Actin Drug Δτ, Screen 1 (AF568-actin) [ns] | Actin Drug Δτ, Screen 2 (AF568-actin) [ns] | Actin Drug Δτ, Sub-optimal Screen 3 (AF568-actin) [ns] | Actin Drug Δτ, Sub-optimal Screen 4 (AF568-actin) [ns] | EC50 [2] [µM] | TR-F n [2] | ITC ΔS [3] | ITC ΔH [3] | ITC ΔG [3] | ITC n (stoichiometry, compound per C0-C2) [3] | Kd [3, 8] [µM] | further results
O=C(O)C1=CC(=C(c2ccc(O)c(C(=O)O)c2)c2ccc(O)c(C(=O)O)c2)C=CC1=O [ATA, aurintricarboxylic acid] | 0.008 | 0.06 | 0.07 | 0.07 | 3.0 | 0.04 | 0.06 | 0.10 | 0.07 | -0.04 | 0.00 | -0.03 | 0.00 | 7.9 ± 1.9 | 3.4 | 52.9 | −10.2 | −25.8 | 3.1 | 25.9 ± 2.2 | ITC n (fitted curve of Figure 4) [3, 9]: 2.1; ITC ΔH (fitted curve of Figure 4) [3, 9]: -2.49 kcal/mol; ITC ΔS (fitted curve of Figure 4) [3, 9]: 51.5 J/mol•K; Kd [3, 10]: 28.1 µM; ITC interaction with F-actin (in words) (F-actin): not apparent; also recorded: no interaction; TR-FRET measured binding of C0-C2 to actin, effect of compound ([4]; 20 μM compound): almost completely eliminated; also recorded: near zero; absorbance in the visible range (light scatter, C0-C2 aggregation) (C0-C2): detected absorption; EC50 [5]: 4.3 ± 0.9 µM; TR-F+PKA n [5]: 1.4
O=C(Nc1cccc(C(=O)Nc2ccc(S(=O)(=O)O)c3cc(S(=O)(=O)O)cc(S(=O)(=O)O)c23)c1)Nc1cccc(C(=O)Nc2ccc(S(=O)(=O)O)c3cc(S(=O)(=O)O)cc(S(=O)(=O)O)c23)c1 [NF023] | 0.058 | 0.07 | 0.06 | 0.04 | 3.8 | 0.09 | 0.06 | 0.08 | 0.03 | -0.03 | 0.01 | -0.02 | 0.01 | 16.3 ± 1.2 | 3.2 | −19.2 | −30.2 | −24.6 | 2.1 | 42 ± 3.4 | ITC n (fitted curve of Figure 4) [3, 9]: 2.6; ITC ΔH (fitted curve of Figure 4) [3, 9]: -7.43 kcal/mol; ITC ΔS (fitted curve of Figure 4) [3, 9]: 20.9 J/mol•K; Kd [3, 10]: 35.1 µM; ITC interaction with F-actin (in words) (F-actin): not apparent; also recorded: no interaction; TR-FRET measured binding of C0-C2 to actin, effect of compound ([4]; 50 μM compound): almost completely eliminated; absorbance in the visible range (light scatter, C0-C2 aggregation) (C0-C2): did not detect absorption; TR-F+PKA n [5]: 1.8; EC50 ([5]; read-out: TR-F+PKA EC50, 1 μM AF568-actin, 3 μM PKA-phosphorylated C0-C2, mean ± SE): 17.5 ± 11.8 µM
Cc1ccc(C(=O)Nc2ccc(S(=O)(=O)O)c3cc(S(=O)(=O)O)cc(S(=O)(=O)O)c23)cc1NC(=O)c1cccc(NC(=O)Nc2cccc(C(=O)Nc3cc(C(=O)Nc4ccc(S(=O)(=O)O)c5cc(S(=O)(=O)O)cc(S(=O)(=O)O)c45)ccc3C)c2)c1 [Suramin, suramin] | 0.088 | 0.15 | 0.18 | 0.13 | 6.5 | 0.12 | 0.16 | 0.21 | 0.09 | -0.03 | 0.00 | -0.03 | 0.04 | 5.9 ± 1.2 | 3.6 | 32.3 | −17.4 | −26.8 | 3.4 | 16.6 ± 1 | ITC n (fitted curve of Figure 4) [3, 9]: 3.9; ITC ΔH (fitted curve of Figure 4) [3, 9]: -4.25 kcal/mol; ITC ΔS (fitted curve of Figure 4) [3, 9]: 30.2 J/mol•K; Kd [3, 10]: 17.6 µM; Kd (F-actin): ~200 µM; ITC interaction with F-actin (in words) (F-actin): weak interaction; TR-FRET measured binding of C0-C2 to actin, effect of compound ([4]; 20 μM compound): almost completely eliminated; absorbance in the visible range (light scatter, C0-C2 aggregation) (C0-C2): did not detect absorption; EC50 [5]: 4.8 ± 1.2 µM; TR-F+PKA n [5]: 1.2
TMR-C0-C2^Cys225 (single-cysteine C0-C2 of human cMyBP-C labeled with tetramethylrhodamine at Cys225) (from UniProt Q14896 1-1274) (domain or fragment) |  |  |  |  |  |  |  |  |  |  |  |  |  |  |  |  |  |  |  |  | Kd [6]: 1 µM; Kd [7]: 2.6 µM; donor lifetime τDA of FMAL-actin with 20 μM TMR-C0-C2^Cys225 (τD = 4.2 ns) [7]: 2 ns

— article PMC8233204, “Cardiac myosin-binding protein C interaction with actin is inhibited by compounds identified in a high-throughput fluorescence lifetime screen” (The Journal of Biological Chemistry, 2021)
